Molecules are shown by their SMILES.

For data set [1], the target named is T1, Coagulation factor X (Homo sapiens, UniProt P00742). As to the kind of experiment: Inhibitory activity against coagulation factor Xa.
Data set [2] addresses Vitamin K-dependent protein C (Homo sapiens, UniProt P04070). As to the kind of experiment: Inhibitory activity against activated protein C.
Another data set addresses Kallikrein-1 (Homo sapiens, UniProt P06870). As to the kind of experiment: Inhibitory activity against kallikrein.
The target in a further data set is Plasminogen (Homo sapiens, UniProt P00747). The data set is described as follows: Inhibitory activity against plasmin.
Sequence of Plasminogen (P00747 97-580 limits assumed): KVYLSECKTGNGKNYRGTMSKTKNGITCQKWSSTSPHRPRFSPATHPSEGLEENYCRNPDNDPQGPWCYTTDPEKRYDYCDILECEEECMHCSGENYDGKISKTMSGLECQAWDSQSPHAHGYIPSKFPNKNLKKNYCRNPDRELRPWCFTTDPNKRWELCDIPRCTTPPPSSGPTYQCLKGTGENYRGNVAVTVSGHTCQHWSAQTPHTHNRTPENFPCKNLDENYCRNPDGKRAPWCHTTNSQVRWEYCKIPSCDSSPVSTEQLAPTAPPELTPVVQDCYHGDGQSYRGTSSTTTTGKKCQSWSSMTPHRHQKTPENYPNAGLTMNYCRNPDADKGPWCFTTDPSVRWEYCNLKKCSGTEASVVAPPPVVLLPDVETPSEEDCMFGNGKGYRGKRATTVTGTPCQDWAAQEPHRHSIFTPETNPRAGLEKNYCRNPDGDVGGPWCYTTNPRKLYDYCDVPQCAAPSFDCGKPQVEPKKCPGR
Sequence of Plasminogen (P00747 581-810 limits assumed): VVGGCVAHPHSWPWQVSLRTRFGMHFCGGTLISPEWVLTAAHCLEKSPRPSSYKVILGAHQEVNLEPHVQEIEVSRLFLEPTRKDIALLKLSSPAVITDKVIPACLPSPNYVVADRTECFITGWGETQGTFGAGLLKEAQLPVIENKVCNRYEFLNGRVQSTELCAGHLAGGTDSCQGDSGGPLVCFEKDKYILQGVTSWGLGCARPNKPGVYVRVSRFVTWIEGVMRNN
The target of the next data set is Prothrombin (Homo sapiens, UniProt P00734). As to the kind of experiment: Inhibitory activity against thrombin.
The target of another data set is Serine protease 1 (Homo sapiens, UniProt P07477). The data set is described as follows: Inhibitory activity against trypsin.
Sequence of Serine protease 1 (P07477 whole entry): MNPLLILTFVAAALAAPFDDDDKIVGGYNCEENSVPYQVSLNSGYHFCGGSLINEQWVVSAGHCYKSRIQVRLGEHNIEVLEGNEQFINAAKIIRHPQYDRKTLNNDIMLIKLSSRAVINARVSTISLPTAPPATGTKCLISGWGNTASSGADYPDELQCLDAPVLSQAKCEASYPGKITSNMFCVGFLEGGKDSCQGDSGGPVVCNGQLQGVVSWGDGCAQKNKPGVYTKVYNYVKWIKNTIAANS
A short description of data set [3]: Tested for volume of distribution after intravenous administration to Sprague-Dawley rat at dosage of 0.2 mg/kg. The data set is classed as ADME, organism-based. Also noted: dose 0.2 mg/kg, route intravenous. Conditions: in vivo, read-out: Volume of distribution.
The nature of data set [4]: Tested for half life value after oral administration at dosage of 4 mg/kg in rat. Also noted: dose 4 mg/kg, route oral. Particulars: in vivo. The data set is classed as ADME, organism-based.
A short description of data set [5]: Clearance after iv administration to Sprague-Dawley rat at dosage of 0.2 mg/kg. Also noted: dose 0.2 mg/kg, route intravenous. The data set is classed as ADME, organism-based. Particulars: in vivo.
In data set [6] the target is T1, Coagulation factor X. As to the kind of experiment: Tested for inhibitory activity against Coagulation factor Xa (trypsin-like serine protease) of the compound.
Data set [7] in a line: Tested for half life value after intravenous administration at dose of 0.2 mg/kg in rat. The data set is classed as ADME, organism-based. Details: dose 0.2 mg/kg, route intravenous. Particulars: in vivo.
A short description of data set [8]: Tested for percent bioavailability after oral administration to Sprague-Dawley rat at dosage of 4 mg/kg. Conditions: in vivo, read-out: Bioavailabiility.
Data set [9] can be described thus: Oral bioavailability in rat by oral dosing. The data set is classed as ADME, organism-based. Particulars: in vivo.
A short description of data set [10]: Half-life was determined. The data set is classed as ADME, organism-based. Conditions: rat, in vivo.

Sequence of Vitamin K-dependent protein C (P04070 43-197 limits assumed): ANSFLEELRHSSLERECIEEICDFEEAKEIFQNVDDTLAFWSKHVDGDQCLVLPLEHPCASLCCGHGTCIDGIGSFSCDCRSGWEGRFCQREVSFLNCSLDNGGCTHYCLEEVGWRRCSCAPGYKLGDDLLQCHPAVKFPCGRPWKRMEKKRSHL
Sequence of Vitamin K-dependent protein C (P04070 212-461 limits assumed): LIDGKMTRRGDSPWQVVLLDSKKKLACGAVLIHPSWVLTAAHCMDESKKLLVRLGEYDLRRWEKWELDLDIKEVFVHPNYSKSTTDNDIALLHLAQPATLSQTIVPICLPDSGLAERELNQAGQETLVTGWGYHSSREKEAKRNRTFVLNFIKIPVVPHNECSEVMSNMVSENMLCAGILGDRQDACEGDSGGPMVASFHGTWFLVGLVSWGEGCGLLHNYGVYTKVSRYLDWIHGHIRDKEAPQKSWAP
Sequence of Kallikrein-1 (P06870 whole entry): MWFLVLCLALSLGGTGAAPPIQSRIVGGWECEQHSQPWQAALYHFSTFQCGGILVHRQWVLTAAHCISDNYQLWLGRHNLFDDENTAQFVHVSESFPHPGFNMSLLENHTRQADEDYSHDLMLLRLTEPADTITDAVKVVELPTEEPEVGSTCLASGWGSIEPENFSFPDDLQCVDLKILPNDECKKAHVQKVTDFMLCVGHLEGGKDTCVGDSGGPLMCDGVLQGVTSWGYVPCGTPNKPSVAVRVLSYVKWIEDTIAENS
T1 sequence (P00742 41-179 limits assumed): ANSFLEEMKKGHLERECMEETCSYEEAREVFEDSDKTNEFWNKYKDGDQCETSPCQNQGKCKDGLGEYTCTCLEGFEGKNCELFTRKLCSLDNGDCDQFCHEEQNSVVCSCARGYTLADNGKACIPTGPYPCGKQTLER
T1 sequence (P00742 235-488 limits assumed): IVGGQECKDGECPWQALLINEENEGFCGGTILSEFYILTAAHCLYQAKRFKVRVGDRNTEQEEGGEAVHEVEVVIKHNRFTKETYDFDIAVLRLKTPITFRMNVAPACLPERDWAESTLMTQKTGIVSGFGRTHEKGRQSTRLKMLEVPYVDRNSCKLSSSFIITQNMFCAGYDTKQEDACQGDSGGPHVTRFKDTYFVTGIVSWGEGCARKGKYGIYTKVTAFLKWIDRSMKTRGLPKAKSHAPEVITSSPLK

One may read the IC50 as the concentration needed to halve the response being measured. Low values mean inhibition by little substance, high ones a need for much substance. Turning to `Cc1cc(C(=O)Nc2ccc(-c3ccccc3S(N)(=O)=O)cc2)n(-c2nc3ccc(Cl)cc3s2)n1`, the IC50 at Coagulation factor X [1] is > 11 µM.
For `Cc1cc(C(=O)Nc2ccc(-c3ccccc3S(N)(=O)=O)cc2)n(-c2cc3ccccc3cc2CN)n1`, the IC50 in data set [2] is > 11 µM; against Coagulation factor X [1], 0.038 µM; on Kallikrein-1, > 11 µM; against Plasminogen, > 11 µM; on Prothrombin it was > 11 µM; against Serine protease 1, > 11 µM.
With `COc1ccc2cc(-n3nc(C)cc3C(=O)Nc3ccc(-c4ccccc4S(N)(=O)=O)cc3)ccc2c1`, the IC50 (in data set [2]; against Kallikrein-1; on Plasminogen; at Prothrombin; against Serine protease 1) was > 11 µM in each case.
On to `Cc1cc(C(=O)Nc2ccc(-c3ccccc3S(N)(=O)=O)cc2)n(-c2ccc3cc(Br)ccc3c2)n1`, for which the IC50 was > 11 µM in data set [2]; 0.018 µM against Coagulation factor X [1]; > 11 µM on Kallikrein-1; > 11 µM at Plasminogen; > 11 µM against Prothrombin; > 11 µM against Serine protease 1.
Turning to `Cc1cc(C(=O)Nc2ccc(-c3ccccc3S(N)(=O)=O)cc2)n(-c2cc3ccccc3cc2Br)n1`, the IC50 in [2] was > 11 µM; on Coagulation factor X [1], 0.143 µM; against Kallikrein-1, > 11 µM; at Plasminogen, > 11 µM; on Prothrombin, > 11 µM; against Serine protease 1 it was > 11 µM.
Regarding `Cc1cc(C(=O)Nc2ccc(-c3ccccc3S(N)(=O)=O)cc2)n(-c2cc3ccccc3cc2C(N)=O)n1`, the IC50 in data set [2] is > 11 µM; on Coagulation factor X [1], 0.024 µM; against Kallikrein-1, > 11 µM; against Plasminogen, > 11 µM; against Prothrombin, > 11 µM; on Serine protease 1, > 11 µM.
For the molecule `Cc1cc(C(=O)Nc2ccc(-c3ccccc3S(N)(=O)=O)cc2)n(-c2cc3ccccc3cc2O)n1`, the IC50 (in data set [2]; against Coagulation factor X [1]; at Kallikrein-1; against Plasminogen; against Prothrombin; on Serine protease 1) was > 11 µM each time.
`Cc1cc(C(=O)Nc2ccc(-c3ccccc3S(N)(=O)=O)cc2)n(-c2ccc3cc(Cl)ccc3c2)n1`: the IC50 is > 11 µM in [2]; 0.011 µM against Coagulation factor X [1]; > 11 µM against Kallikrein-1; > 11 µM against Plasminogen; > 11 µM against Prothrombin; > 11 µM against Serine protease 1.
On to `Cc1cc(C(=O)Nc2ccc(-c3ccccc3S(N)(=O)=O)cc2)n(-c2cc3ccccc3cc2C(=N)N)n1`, for which the IC50 was > 11 µM in data set [2]; 0.021 µM at Coagulation factor X [1]; > 11 µM at Kallikrein-1; > 11 µM against Plasminogen; > 11 µM against Prothrombin; > 11 µM at Serine protease 1.
Take `Cc1cc(C(=O)Nc2ccc(-c3ccccc3S(N)(=O)=O)cc2)n(-c2cc3ccccc3cc2CO)n1`: the IC50 in data set [2] is > 11 µM; on Coagulation factor X [1], 0.483 µM; at Kallikrein-1, > 11 µM; against Plasminogen it was > 11 µM; against Prothrombin, > 11 µM; against Serine protease 1, > 11 µM.
Take `NS(=O)(=O)c1ccccc1-c1ccc(NC(=O)c2cc(C(F)(F)F)nn2-c2cc3ccccc3cc2F)cc1`: on Coagulation factor X [1], the IC50 stood at 0.027 µM.
Take `Cc1cc(C(=O)Nc2ccc(-c3ccccc3S(N)(=O)=O)cc2)n(-c2cc3ccccc3cc2C(=O)O)n1`: the IC50 in data set [2] is > 11 µM; on Coagulation factor X [1], 0.376 µM; on Kallikrein-1, > 11 µM; against Plasminogen, > 11 µM; against Prothrombin it was > 11 µM; against Serine protease 1, > 11 µM.
For `Cc1cc(C(=O)Nc2ccc(-c3ccccc3S(N)(=O)=O)cc2)n(-c2cc3ccccc3cc2S(C)(=O)=O)n1`, the IC50 is > 11 µM in data set [2]; 0.045 µM against Coagulation factor X [1]; > 11 µM on Kallikrein-1; > 11 µM against Plasminogen; > 11 µM at Prothrombin; > 11 µM against Serine protease 1.
As for `COC(=O)c1cc2ccccc2cc1-n1nc(C)cc1C(=O)Nc1ccc(-c2ccccc2S(N)(=O)=O)cc1`, the IC50 in [2] was > 11 µM; on Coagulation factor X [1], 0.545 µM; against Kallikrein-1 it was > 11 µM; against Plasminogen, > 11 µM; on Prothrombin it was > 11 µM; against Serine protease 1, > 11 µM.
The term half-life denotes the time needed for the level to fall by half in the phase considered. A lower half-life goes with fast loss. In general, clearance refers to a measure of how efficiently the substance is removed, as volume per time. A higher clearance goes with efficient removal. Broadly, the Ki is a dissociation constant, usually derived from enzyme kinetics or from competition with a known ligand. Take `Cc1cc(C(=O)Nc2ccc(-c3ccccc3S(N)(=O)=O)cc2)n(-c2cc3ccccc3cc2F)n1`: the Vd in [3] is 2.6 L/kg. For the same molecule, the half-life in data set [4] was 6 h; in [7] it was 1.7 h. In data set [5], this molecule registered a clearance of 1.06 L/h/kg. Besides, the IC50 was > 11 µM in [2]; 0.009 µM on Coagulation factor X [1]; > 11 µM at Kallikrein-1; > 11 µM against Plasminogen; > 11 µM on Prothrombin; > 11 µM on Serine protease 1. Moreover, the Ki on Coagulation factor X [6] was determined as 0.0057 µM. For the same molecule, in [8], the bioavailability turned out to be 22%.
As to `Cc1cc(C(=O)Nc2ccc(-c3ccccc3S(N)(=O)=O)cc2)n(-c2ccc3ccccc3c2)n1`, the bioavailability in data set [9] came to 24.5%. The half-life in data set [10] was 2.4 h. Moreover, the concentration for half-maximal inhibition (IC50) is > 11 µM in [2]; 0.104 µM against Coagulation factor X [1]; > 11 µM on Kallikrein-1; > 11 µM against Plasminogen; > 11 µM on Prothrombin; > 11 µM at Serine protease 1.
For the molecule `NS(=O)(=O)c1ccccc1-c1ccc(NC(=O)c2cc(C(F)(F)F)nn2-c2ccc3cc(Cl)ccc3c2)cc1`, the IC50 on Coagulation factor X [1] came to 0.004 µM.
As for `Cc1cc(C(=O)Nc2ccc(-c3ccccc3S(N)(=O)=O)cc2)n(-c2cc3ccccc3cc2C(=N)N(C)C)n1`, the IC50 in data set [2] was > 11 µM; at Coagulation factor X [1], 1.65 µM; on Kallikrein-1, > 11 µM; against Plasminogen it was > 11 µM; on Prothrombin it was > 11 µM; on Serine protease 1 it was > 11 µM.
Take `Cc1cc(C(=O)Nc2ccc(-c3ccccc3S(N)(=O)=O)cc2)n(-c2cc3ccccc3cc2C2=NCCN2)n1`: the IC50 was > 11 µM in [2]; 7.82 µM at Coagulation factor X [1]; > 11 µM against Kallikrein-1; > 11 µM on Plasminogen; > 11 µM against Prothrombin; > 11 µM against Serine protease 1.
On to `Cc1cc(C(=O)Nc2ccc(-c3ccccc3S(N)(=O)=O)cc2)n(-c2cc3ccccc3cc2C#N)n1`, for which the IC50 in data set [2] was > 11 µM; on Coagulation factor X [1], 0.006 µM; at Kallikrein-1 it was > 11 µM; at Plasminogen it was > 11 µM; against Prothrombin it was > 11 µM; at Serine protease 1, > 11 µM.
Consider `Cc1cc(C(=O)Nc2ccc(-c3ccccc3S(N)(=O)=O)cc2)n(-c2cc3ccccc3cc2S(N)(=O)=O)n1`, for which the IC50 is > 11 µM in data set [2]; 0.024 µM against Coagulation factor X [1]; > 11 µM against Kallikrein-1; > 11 µM against Plasminogen; > 11 µM at Prothrombin; > 11 µM against Serine protease 1.
For `Cc1cc(C(=O)Nc2ccc(-c3ccccc3S(N)(=O)=O)cc2)n(-c2ccc3cc(O)ccc3c2)n1`, the IC50 in data set [2] is > 11 µM; against Coagulation factor X [1] it was 3.51 µM; at Kallikrein-1 it was > 11 µM; against Plasminogen, > 11 µM; against Prothrombin, > 11 µM; on Serine protease 1, > 11 µM.
